Measured values from US6630321B1, “Method for identifying a compound that modulates the function of the gene product of an essential gene” (priority 1999, dated 2003).
Numbered stars: 1 amine (or outer) side, 2 acyl side, 3 side chain; on linkers, the order of the positions; unused ones are H or OH. Square brackets hold non-standard residues; d marks the D form. Peptide text beside a SMILES is read from it. X1 = CC[C@@H](C)[C@@H](O[*:1])C(=O)[*:2]; NMeVal(β-OH) = CN[C@H](C(=O)O)C(C)(C)O; NMeF = CN[C@@H](Cc1ccccc1)C(=O)O; aIle = CC[C@@H](C)[C@H](N)C(=O)O; NMeV = CN[C@H](C(=O)O)C(C)C

Assays:
[1] = system: GAL1-ERG11 strain; assay: growth (optical density) hypersensitivity of GAL1-ERG11 strain after promoter switch-off, compared to wild type; type: cell-based, S. cerevisiae; conditions: GAL1 promoter switched OFF (galactose to glucose), final optical density vs wt
Description: (§1) By “viable” we mean cells that have grown sufficiently so that when gene expression of an essential gene is turned off, meaningful measurements and kinetic analysis may be made. The cells are preferably allowed to grow into early stationary phase by which time a final optical density reading is taken. A reduced optical density compared to no drug or no switchoff controls is interpreted as growth inhibition.
(§2) However no reduction in growth will be observed as long as the amount of active Erg11p is high enough not to be rate limiting for growth (above the threshold, see FIG. 2) In our example the fluconazole concentration is insufficient to reduce Erg11p activity below this threshold. The situation for a GAL1-driven ERG11 gene is different however: At time 0 the gene's engineered promoter is switched from the ON state (because of the high expression of a GAL1 promoter this level is usually higher than for the native promoter) to the OFF state by changing the carbon source in the culture. From this timepoint on no new mRNA is transcribed and—after decay of the mRNA—no new Erg11 protein is being synthesized. Erg11 concentrations are now falling due to the dilution of the enzyme into new daughter cells and protein decay of Erg11p. […] This is reflected by a lower final optical density of the culture. […] Therefore the threshold-line is crossed earlier, as no new Erg11p can be synthesized. Compared to the wild-type cell, this is seen as hypersensitivity (larger reduction in growth in the presence of an identical concentration of drug). Simplified one can explain this as a reduced amount of cell-doublings before rate-limiting conditions occur.
For target and compound evaluation the hypersensitivity has to be specific for certain drug-target combinations. Therfore the method was tested and validated with another unrelated known drug-target combination: The AUR1 gene encodes inositolphosphorylceramide (IPC) synthase, an essential enzyme of the fungal sphingolipid biosynthetic pathway (Nagiec et al, J.Biol.Chem., 1997, 272,15, 9809-9817). […]

[2] = system: GAL1-AUR1 strain; assay: growth (optical density) hypersensitivity of GAL1-AUR1 strain after promoter switch-off, compared to wild type; type: cell-based, S. cerevisiae; conditions: GAL1 promoter switched OFF (galactose to glucose), final optical density vs wt
Description: as §1
as §2, with “Compared to the wild-type cell, this is seen as hypersensitivity (larger reduction in growth in the presence of an identical concentration of drug). Simplified one can explain this as a reduced amount of cell-doublings before rate-limiting conditions occur.” left out

[3] = target: T1, inositolphosphorylceramide (IPC) synthase (AUR1) (Saccharomyces cerevisiae, UniProt P36107); conditions: cited from earlier work
T1 sequence (P36107 1-401): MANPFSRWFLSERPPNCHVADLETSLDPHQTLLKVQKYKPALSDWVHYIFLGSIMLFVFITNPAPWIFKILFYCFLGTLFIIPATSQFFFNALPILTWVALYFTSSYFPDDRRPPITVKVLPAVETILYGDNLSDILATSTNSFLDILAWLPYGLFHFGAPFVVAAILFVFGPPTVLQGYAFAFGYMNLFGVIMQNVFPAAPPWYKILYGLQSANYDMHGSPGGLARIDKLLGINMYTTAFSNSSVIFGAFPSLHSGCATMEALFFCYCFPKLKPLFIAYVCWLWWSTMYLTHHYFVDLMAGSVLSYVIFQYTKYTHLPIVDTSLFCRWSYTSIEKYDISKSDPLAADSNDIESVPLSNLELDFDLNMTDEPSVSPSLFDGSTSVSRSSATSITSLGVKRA
T1 sequence (Q06346 1-221 partner): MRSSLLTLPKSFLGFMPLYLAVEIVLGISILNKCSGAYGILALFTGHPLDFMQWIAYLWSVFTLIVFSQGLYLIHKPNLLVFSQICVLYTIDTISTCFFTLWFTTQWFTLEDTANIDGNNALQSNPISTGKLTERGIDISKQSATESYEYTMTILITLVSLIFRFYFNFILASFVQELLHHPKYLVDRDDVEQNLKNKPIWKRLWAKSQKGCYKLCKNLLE

[4] = target: Erg11p, lanosterol C-14-demethylase (Saccharomyces cerevisiae, UniProt P10614); conditions: cited from earlier work
Sequence of Erg11p, lanosterol C-14-demethylase (P10614 whole entry): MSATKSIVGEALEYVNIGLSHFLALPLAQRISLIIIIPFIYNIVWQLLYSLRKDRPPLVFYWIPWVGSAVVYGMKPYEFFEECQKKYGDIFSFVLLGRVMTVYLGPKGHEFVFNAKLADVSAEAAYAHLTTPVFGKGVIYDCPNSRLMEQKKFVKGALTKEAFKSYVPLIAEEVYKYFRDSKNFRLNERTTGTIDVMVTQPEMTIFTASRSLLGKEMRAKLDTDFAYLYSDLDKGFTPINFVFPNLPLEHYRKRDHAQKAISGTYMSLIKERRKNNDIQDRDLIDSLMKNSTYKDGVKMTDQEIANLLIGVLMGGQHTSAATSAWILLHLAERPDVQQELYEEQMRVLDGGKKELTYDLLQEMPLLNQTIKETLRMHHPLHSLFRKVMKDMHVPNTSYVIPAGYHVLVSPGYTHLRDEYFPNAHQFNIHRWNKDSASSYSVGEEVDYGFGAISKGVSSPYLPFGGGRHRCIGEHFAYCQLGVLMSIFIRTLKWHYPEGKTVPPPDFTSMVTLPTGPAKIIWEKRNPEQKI

[5] = target: Erg1p, squalene epoxidase (Saccharomyces cerevisiae, UniProt P32476); conditions: cited from earlier work
Sequence of Erg1p, squalene epoxidase (P32476 whole entry): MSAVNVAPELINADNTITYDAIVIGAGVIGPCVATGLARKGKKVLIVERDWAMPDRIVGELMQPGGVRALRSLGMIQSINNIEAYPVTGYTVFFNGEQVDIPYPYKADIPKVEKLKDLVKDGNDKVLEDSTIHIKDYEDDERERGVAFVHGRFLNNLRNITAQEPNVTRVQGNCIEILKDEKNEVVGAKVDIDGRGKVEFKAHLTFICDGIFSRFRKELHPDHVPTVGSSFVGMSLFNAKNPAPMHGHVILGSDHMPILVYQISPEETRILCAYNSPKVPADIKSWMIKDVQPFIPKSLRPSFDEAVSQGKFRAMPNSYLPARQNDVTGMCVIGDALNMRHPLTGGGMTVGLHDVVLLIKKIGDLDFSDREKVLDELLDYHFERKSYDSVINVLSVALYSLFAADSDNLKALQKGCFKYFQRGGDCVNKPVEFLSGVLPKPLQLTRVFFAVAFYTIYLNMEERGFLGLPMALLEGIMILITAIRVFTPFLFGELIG

[6] = system: GAL1-ERG1 strain; assay: growth (optical density) hypersensitivity of GAL1-ERG1 strain after promoter switch-off, compared to wild type; type: cell-based, S. cerevisiae; conditions: GAL1 promoter switched OFF, FIG. 5
Description: as §1
It follows that the hypersensitive reaction towards an inhibitor of one enzyme in a pathway may be extended to inhibitors of the whole pathway. This is due to the linear arrangement of enzymes in a biochemical cascade of reactions where one enzyme provides substrate for the next. A reduced substrate supply can act synergistically with a reduced enzyme level. Thus the activity of the almost rate-limiting enzyme Erg11p (after switchoff) will be reduced further by withdrawal of its substrate normally provided by Erg1p, squalene epoxidase, another enzyme of the sterol biosynthetic pathway, through several biochemical steps. Erg1p is now inhibited by terbinafine. Any such pathway specific hypersensitivity allows the categorisation of (uncategorised) genes into the same pathway as the switched off gene. To investigate this, we examined Erg1p. […] This pathway-specific analysis tool will be extremely useful for the classification of novel inhibitors (with unknown mode of action).

Row | SMILES | hypersensitivity (larger reduction in growth than wild type at identical drug concentration) [1] | hypersensitivity (larger reduction in growth than wild type at identical drug concentration) [2] | potency of enzyme inhibition [3] | enzyme inhibition [4] | enzyme inhibition [5] | hypersensitivity (larger reduction in growth than wild type at identical drug concentration) [6]
1 | CC[C@@H](C)[C@@H]1NC(=O)[C@@H]2CCCN2C(=O)[C@H](Cc2ccccc2)N(C)C(=O)[C@H](Cc2ccccc2)NC(=O)[C@H](C(C)C)N(C)C(=O)[C@@H]([C@H](C)CC)OC(=O)[C@H](C(C)(C)O)N(C)C(=O)[C@H](CC(C)C)NC(=O)[C@H](C(C)C)N(C)C1=O [aureobasidinA] (cyclo(F[NMeF]P[aIle][NMeV]L[NMeVal(β-OH)][X1][NMeV])) | no increased sensitivity | prominent hypersensitive response | sub nanomolar potency |  |  | 
2 | OC(Cn1cncn1)(Cn1cncn1)c1ccc(F)cc1F [fluconazole] | prominent hypersensitive response | neither did GAL1-AUR1 show hypersensitivity |  | inhibits Erg11p |  | 
3 | CN(C/C=C/C#CC(C)(C)C)Cc1cccc2ccccc12 [terbinafine] | as hypersuscepible to terbinafine as GAL1-ERG1 |  |  | Erg11p is not | inhibited | hypersuscepible
